{"source": "PubChem BioAssay (NCI)", "test_in_all_cases": "DTP human tumour cell line panel, 48 h", "key": {"786-0 renal": {"system": "786-0 renal"}, "A498 renal": {"system": "A498 renal"}, "ACHN renal": {"system": "ACHN renal"}, "BT-549 breast": {"system": "BT-549 breast"}, "CAKI-1 renal": {"system": "CAKI-1 renal"}, "CCRF-CEM leukemia": {"system": "CCRF-CEM leukemia"}, "DU-145 prostate": {"system": "DU-145 prostate"}, "EKVX NSCLC": {"system": "EKVX NSCLC"}, "HCC-2998 colon": {"system": "HCC-2998 colon"}, "HCT-15 colon": {"system": "HCT-15 colon"}, "HL-60(TB) leukemia": {"system": "HL-60(TB) leukemia"}, "HOP-92 NSCLC": {"system": "HOP-92 NSCLC"}, "HS 578T breast": {"system": "HS 578T breast"}, "IGROV1 ovarian": {"system": "IGROV1 ovarian"}, "K-562 leukemia": {"system": "K-562 leukemia"}, "KM12 colon": {"system": "KM12 colon"}, "MALME-3M melanoma": {"system": "MALME-3M melanoma"}, "MOLT-4 leukemia": {"system": "MOLT-4 leukemia"}, "NCI-H460 lung": {"system": "NCI-H460 lung"}, "NCI/ADR-RES ovarian": {"system": "NCI/ADR-RES ovarian"}, "OVCAR-4 ovarian": {"system": "OVCAR-4 ovarian"}, "OVCAR-5 ovarian": {"system": "OVCAR-5 ovarian"}, "PC-3 prostate": {"system": "PC-3 prostate"}, "RXF 393 renal": {"system": "RXF 393 renal"}, "SF-539 CNS": {"system": "SF-539 CNS"}, "SK-MEL-2 melanoma": {"system": "SK-MEL-2 melanoma"}, "SK-MEL-28 melanoma": {"system": "SK-MEL-28 melanoma"}, "SK-MEL-5 melanoma": {"system": "SK-MEL-5 melanoma"}, "SN12C renal": {"system": "SN12C renal"}, "SNB-19 CNS": {"system": "SNB-19 CNS"}, "SR leukemia": {"system": "SR leukemia"}, "SW-620 colon": {"system": "SW-620 colon"}, "TK-10 renal": {"system": "TK-10 renal"}, "UACC-257 melanoma": {"system": "UACC-257 melanoma"}, "UACC-62 melanoma": {"system": "UACC-62 melanoma"}, "UO-31 renal": {"system": "UO-31 renal"}}, "note": "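Compound exposure: 48 hours, 5 concentrations, 96-well plates. TGI: total growth inhibition.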"}
{"smiles": "Nc1ccc(Oc2ccc(C3(c4ccc(Oc5ccc(N)c(O)c5)cc4)C4CC5C6CC7CC5C3C(C7)C6C4)cc2)cc1O", "values": [{"measurement": "TGI", "setting": "786-0 renal", "value": 3.4, "unit": "µM"}, {"measurement": "TGI", "setting": "A498 renal", "value": 4.73, "unit": "µM"}, {"measurement": "TGI", "setting": "ACHN renal", "value": 3.18, "unit": "µM"}, {"measurement": "TGI", "setting": "BT-549 breast", "value": "> 31.2", "unit": "µM"}, {"measurement": "TGI", "setting": "CAKI-1 renal", "value": 6.72, "unit": "µM"}, {"measurement": "TGI", "setting": "CCRF-CEM leukemia", "value": "> 100", "unit": "µM"}, {"measurement": "TGI", "setting": "DU-145 prostate", "value": 3.54, "unit": "µM"}, {"measurement": "TGI", "setting": "EKVX NSCLC", "value": "> 24.1", "unit": "µM"}, {"measurement": "TGI", "setting": "HCC-2998 colon", "value": 4.96, "unit": "µM"}, {"measurement": "TGI", "setting": "HCT-15 colon", "value": 10.3, "unit": "µM"}, {"measurement": "TGI", "setting": "HL-60(TB) leukemia", "value": "> 100", "unit": "µM"}, {"measurement": "TGI", "setting": "HOP-92 NSCLC", "value": 5.02, "unit": "µM"}, {"measurement": "TGI", "setting": "HS 578T breast", "value": "> 100", "unit": "µM"}, {"measurement": "TGI", "setting": "IGROV1 ovarian", "value": 4.68, "unit": "µM"}, {"measurement": "TGI", "setting": "K-562 leukemia", "value": 5.35, "unit": "µM"}, {"measurement": "TGI", "setting": "KM12 colon", "value": 3.85, "unit": "µM"}, {"measurement": "TGI", "setting": "MALME-3M melanoma", "value": "> 24.2", "unit": "µM"}, {"measurement": "TGI", "setting": "MOLT-4 leukemia", "value": 4.99, "unit": "µM"}, {"measurement": "TGI", "setting": "NCI-H460 lung", "value": "> 100", "unit": "µM"}, {"measurement": "TGI", "setting": "NCI/ADR-RES ovarian", "value": "> 100", "unit": "µM"}, {"measurement": "TGI", "setting": "OVCAR-4 ovarian", "value": 5.73, "unit": "µM"}, {"measurement": "TGI", "setting": "OVCAR-5 ovarian", "value": 5.76, "unit": "µM"}, {"measurement": "TGI", "setting": "PC-3 prostate", "value": 3.48, "unit": "µM"}, {"measurement": "TGI", "setting": "RXF 393 renal", "value": 4.5, "unit": "µM"}, {"measurement": "TGI", "setting": "SF-539 CNS", "value": "> 21.6", "unit": "µM"}, {"measurement": "TGI", "setting": "SK-MEL-2 melanoma", "value": 5.64, "unit": "µM"}, {"measurement": "TGI", "setting": "SK-MEL-28 melanoma", "value": "> 26.5", "unit": "µM"}, {"measurement": "TGI", "setting": "SK-MEL-5 melanoma", "value": "> 26.4", "unit": "µM"}, {"measurement": "TGI", "setting": "SN12C renal", "value": 3.19, "unit": "µM"}, {"measurement": "TGI", "setting": "SNB-19 CNS", "value": 24.2, "unit": "µM"}, {"measurement": "TGI", "setting": "SR leukemia", "value": "> 100", "unit": "µM"}, {"measurement": "TGI", "setting": "SW-620 colon", "value": "> 100", "unit": "µM"}, {"measurement": "TGI", "setting": "TK-10 renal", "value": "> 26", "unit": "µM"}, {"measurement": "TGI", "setting": "UACC-257 melanoma", "value": 14.6, "unit": "µM"}, {"measurement": "TGI", "setting": "UACC-62 melanoma", "value": 17.7, "unit": "µM"}, {"measurement": "TGI", "setting": "UO-31 renal", "value": 8.12, "unit": "µM"}]}
